Read-outs that look alike come from different tables or passages of the source.
Legend:
RSV-A2-GFP virus = assay: microbe, parasite or virus in culture; assay type: cell-based, Human Respiratory Syncytial Virus
Method in brief: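 Assay-ready frozen Calu-1 cells at 20,000 cells/mL were infected with recombinant RSV-A2-GFP (MOI 1.2) in DMEM with 2% FBS. Cells were exposed to 10-point 3-fold compound dilutions for 96 h at 37° C. GFP-positive cells were counted by imaging, with same-well CellTiter-Glo for cytotoxicity, and IC50 and CC50 came from 4-parameter logistic fits.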

hMPV-GFP virus = assay: microbe, parasite or virus in culture; assay type: cell-based, human metapneumovirus
Method in brief: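 VERO cells infected with GFP-expressing hMPV at MOI 1.25 were incubated 48 h at 37 °C with compound in 10-point 3-fold dilutions (typically 40,300–2 nM final). GFP-positive cells were counted by imaging. Same-well CellTiter-Glo gave cytotoxicity, and IC50/CC50 came from 4-parameter logistic fits.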

[1] = Calu-1 cells infected with RSV-A2-GFP, 96 hrs, GFP-expressing cells counted, read-out: RSV EC50
[2] = VERO cells infected with hMPV-GFP, 48 hrs, GFP-expressing cells counted, read-out: hMPV EC50
[3] = human respiratory syncytial virus, Calu-1, 96 h, read-out: RSV EC50, Calu-1 cells infected with RSV-A2-GFP, 96 hrs, GFP-expressing cells counted
[4] = human metapneumovirus, Vero, 48 h, read-out: hMPV EC50, VERO cells infected with hMPV-GFP, 48 hrs, GFP-expressing cells counted

Molecule `Cc1ccc(-c2cc(C(C)(C)N)cc(O[C@H]3[C@@H]4CN(C(=O)c5sc(-c6ncccn6)nc5C)C[C@@H]43)n2)c(F)c1` [Example 38, ((1R,5S,6s)-6-((4-(2-aminopropan-2-yl)-6-(2-fluoro-4-methylphenyl)pyridin-2-yl)oxy)-3-azabicyclo[3.1.0]hexan-3-yl)(4-methyl-2-(pyrimidin-2-yl)thiazol-5-yl)methanone] has an EC50 (RSV-A2-GFP virus; [1]) of under 10 nM and an EC50 (hMPV-GFP virus; [2]) of 10 to 100 nM.
Work on `Cc1cc(F)ccc1-c1cc(C(C)(C)N)cc(O[C@H]2[C@@H]3CN(C(=O)c4sc(-c5ncccn5)nc4C)C[C@@H]32)n1` [Example 39, ((1R,5S,6s)-6-((4-(2-aminopropan-2-yl)-6-(4-fluoro-2-methylphenyl)pyridin-2-yl)oxy)-3-azabicyclo[3.1.0]hexan-3-yl)(4-methyl-2-(pyrimidin-2-yl)thiazol-5-yl)methanone] yielded an EC50 (RSV-A2-GFP virus; [1]) of under 10 nM and an EC50 (hMPV-GFP virus; [2]) of 10 to 100 nM.
`Cc1cccc(-c2cc(C(C)(C)N)cc(O[C@H]3[C@@H]4CN(C(=O)c5sc(-c6ncccn6)nc5C)C[C@@H]43)n2)c1F` [Example 40, ((1R,5S,6s)-6-((4-(2-aminopropan-2-yl)-6-(2-fluoro-3-methylphenyl)pyridin-2-yl)oxy)-3-azabicyclo[3.1.0]hexan-3-yl)(4-methyl-2-(pyrimidin-2-yl)thiazol-5-yl)methanone] gave an EC50 (RSV-A2-GFP virus; [1]) of under 10 nM and an EC50 (hMPV-GFP virus; [2]) of over 100 nM.
In the case of `COc1cc(F)ccc1-c1cc(C(C)(C)N)cc(O[C@H]2[C@@H]3CN(C(=O)c4sc(-c5ncccn5)nc4C)C[C@@H]32)n1` [Example 41, ((1R,5S,6s)-6-((4-(2-aminopropan-2-yl)-6-(4-fluoro-2-methoxyphenyl)pyridin-2-yl)oxy)-3-azabicyclo[3.1.0]hexan-3-yl)(4-methyl-2-(pyrimidin-2-yl)thiazol-5-yl)methanone], the EC50 (RSV-A2-GFP virus; [1]) is reported as under 10 nM and the EC50 (hMPV-GFP virus; [2]) is reported as over 100 nM.
`Cc1nc(-c2ncccn2)sc1C(=O)N1C[C@@H]2[C@H](C1)[C@H]2Oc1cc(C(C)(C)N)cc(-c2ccc(F)c3ccccc23)n1` [Example 42, ((1R,5S,6s)-6-((4-(2-aminopropan-2-yl)-6-(4-fluoronaphthalen-1-yl)pyridin-2-yl)oxy)-3-azabicyclo[3.1.0]hexan-3-yl)(4-methyl-2-(pyrimidin-2-yl)thiazol-5-yl)methanone] was tested, and the EC50 (RSV-A2-GFP virus; [1]) was under 10 nM and the EC50 (hMPV-GFP virus; [2]) was 10 to 100 nM.
`Cc1nc(-c2ncccn2)sc1C(=O)N1C[C@@H]2[C@H](C1)[C@H]2Oc1cc(C(C)(C)N)cc(-c2cc3ccccc3[nH]2)n1` [Example 43, ((1R,5S,6s)-6-((4-(2-aminopropan-2-yl)-6-(1H-indol-2-yl)pyridin-2-yl)oxy)-3-azabicyclo[3.1.0]hexan-3-yl)(4-methyl-2-(pyrimidin-2-yl)thiazol-5-yl)methanone] was tested, and the EC50 (RSV-A2-GFP virus; [1]) was under 10 nM and the EC50 (hMPV-GFP virus; [2]) was over 100 nM.
`Cc1nc(-c2ncccn2)sc1C(=O)N1C[C@@H]2[C@H](C1)[C@H]2Oc1cc(C(C)(C)N)cc(-c2cc3ccccc3n2C)n1` [Example 44, ((1R,5S,6s)-6-((4-(2-aminopropan-2-yl)-6-(1-methyl-1H-indol-2-yl)pyridin-2-yl)oxy)-3-azabicyclo[3.1.0]hexan-3-yl)(4-methyl-2-(pyrimidin-2-yl)thiazol-5-yl)methanone] was tested, and the EC50 (RSV-A2-GFP virus; [1]) was under 10 nM and the EC50 (hMPV-GFP virus; [2]) was 10 to 100 nM.
`Cc1nc(-c2ncccn2)sc1C(=O)N1C[C@@H]2[C@H](C1)[C@H]2Oc1cc(C(C)(C)N)cc(C2=CCCCC2)n1` [Example 45, ((1R,5S,6s)-6-((4-(2-aminopropan-2-yl)-6-(cyclohex-1-en-1-yl)pyridin-2-yl)oxy)-3-azabicyclo[3.1.0]hexan-3-yl)(4-methyl-2-(pyrimidin-2-yl)thiazol-5-yl)methanone] gave an EC50 (RSV-A2-GFP virus; [1]) of under 10 nM and an EC50 (hMPV-GFP virus; [2]) of over 100 nM.
Molecule `Cc1nc(-c2ncccn2)sc1C(=O)N1C[C@@H]2[C@H](C1)[C@H]2Oc1cc(C(C)(C)N)cc(C2=CCC3(CCC3)CC2)n1` [Example 48, ((1R,5S,6s)-6-((4-(2-aminopropan-2-yl)-6-(spiro[3.5]non-6-en-7-yl)pyridin-2-yl)oxy)-3-azabicyclo[3.1.0]hexan-3-yl)(4-methyl-2-(pyrimidin-2-yl)thiazol-5-yl)methanone] has an EC50 (RSV-A2-GFP virus; [1]) of under 10 nM and an EC50 (hMPV-GFP virus; [2]) of over 100 nM.
Work on `CC(C)(N)c1cc(O[C@H]2[C@@H]3CN(C(=O)c4sc(-c5ncccn5)nc4C(F)F)C[C@@H]32)nc(-c2ccc(F)cc2)c1` [Example 49, ((1R,5S,6s)-6-((4-(2-aminopropan-2-yl)-6-(4-fluorophenyl)pyridin-2-yl)oxy)-3-azabicyclo[3.1.0]hexan-3-yl)(4-(difluoromethyl)-2-(pyrimidin-2-yl)thiazol-5-yl)methanone] yielded an EC50 (RSV-A2-GFP virus; [3]) of under 10 nM and an EC50 (hMPV-GFP virus; [4]) of 10 to 100 nM.
In the case of `Cn1nc(-c2cccc(F)n2)cc1C(=O)N1C[C@@H]2[C@H](C1)[C@H]2Oc1cc(C(C)(C)N)cc(-c2ccc(F)cc2)n1` [Example 50, ((1R,5S,6s)-6-((4-(2-aminopropan-2-yl)-6-(4-fluorophenyl)pyridin-2-yl)oxy)-3-azabicyclo[3.1.0]hexan-3-yl)(3-(6-fluoropyridin-2-yl)-1-methyl-1H-pyrazol-5-yl)methanone], the EC50 (RSV-A2-GFP virus; [3]) is reported as under 10 nM and the EC50 (hMPV-GFP virus; [4]) is reported as 10 to 100 nM.
Work on `Cc1cccc(-c2cc(C(=O)N3C[C@@H]4[C@H](C3)[C@H]4Oc3cc(C(C)(C)N)cc(-c4ccc(F)cc4)n3)n(C)n2)n1` [Example 51, ((1R,5S,6s)-6-((4-(2-aminopropan-2-yl)-6-(4-fluorophenyl)pyridin-2-yl)oxy)-3-azabicyclo[3.1.0]hexan-3-yl)(1-methyl-3-(6-methylpyridin-2-yl)-1H-pyrazol-5-yl)methanone] yielded an EC50 (RSV-A2-GFP virus; [1]) of under 10 nM and an EC50 (hMPV-GFP virus; [2]) of over 100 nM.
With `Cn1nc(-c2ncccn2)cc1C(=O)N1C[C@@H]2[C@H](C1)[C@H]2Oc1cc(C(C)(C)N)cc(-c2ccc(F)cc2)n1` [Example 52, ((1R,5S,6s)-6-((4-(2-aminopropan-2-yl)-6-(4-fluorophenyl)pyridin-2-yl)oxy)-3-azabicyclo[3.1.0]hexan-3-yl)(1-methyl-3-(pyrimidin-2-yl)-1H-pyrazol-5-yl)methanone] the EC50 (RSV-A2-GFP virus; [3]) was under 10 nM and the EC50 (hMPV-GFP virus; [4]) was over 100 nM.
Work on `Cn1nc(-c2ncccn2)c(Cl)c1C(=O)N1C[C@@H]2[C@H](C1)[C@H]2Oc1cc(C(C)(C)N)cc(-c2ccc(F)cc2)n1` [Example 53, ((1R,5S,6s)-6-((4-(2-aminopropan-2-yl)-6-(4-fluorophenyl)pyridin-2-yl)oxy)-3-azabicyclo[3.1.0]hexan-3-yl)(4-chloro-1-methyl-3-(pyrimidin-2-yl)-1H-pyrazol-5-yl)methanone] yielded an EC50 (RSV-A2-GFP virus; [3]) of under 10 nM and an EC50 (hMPV-GFP virus; [4]) of over 100 nM.
`Cn1nc(-c2ncccn2)c(F)c1C(=O)N1C[C@@H]2[C@H](C1)[C@H]2Oc1cc(C(C)(C)N)cc(-c2ccc(F)cc2)n1` [Example 54, ((1R,5S,6s)-6-((4-(2-aminopropan-2-yl)-6-(4-fluorophenyl)pyridin-2-yl)oxy)-3-azabicyclo[3.1.0]hexan-3-yl)(4-fluoro-1-methyl-3-(pyrimidin-2-yl)-1H-pyrazol-5-yl)methanone] gave an EC50 (RSV-A2-GFP virus; [3]) of under 10 nM and an EC50 (hMPV-GFP virus; [4]) of over 100 nM.
For `Cn1nc(-c2ncccn2)cc1C(=O)N1C[C@@H]2[C@H](C1)[C@H]2Oc1cc(C(C)(C)N)cc(-c2ccc(F)c(F)c2)n1` [Example 55, ((1R,5S,6s)-6-((4-(2-aminopropan-2-yl)-6-(3,4-difluorophenyl)pyridin-2-yl)oxy)-3-azabicyclo[3.1.0]hexan-3-yl)(1-methyl-3-(pyrimidin-2-yl)-1H-pyrazol-5-yl)methanone], the EC50 (RSV-A2-GFP virus; [3]) was under 10 nM and the EC50 (hMPV-GFP virus; [4]) was over 100 nM.
`Cn1nc(-c2ncccn2)cc1C(=O)N1C[C@@H]2[C@H](C1)[C@H]2Oc1cc(C(C)(C)N)cc(-c2ccc(F)c(Cl)c2)n1` [Example 56, ((1R,5S,6s)-6-((4-(2-aminopropan-2-yl)-6-(3-chloro-4-fluorophenyl)pyridin-2-yl)oxy)-3-azabicyclo[3.1.0]hexan-3-yl)(1-methyl-3-(pyrimidin-2-yl)-1H-pyrazol-5-yl)methanone] was tested, and the EC50 (RSV-A2-GFP virus; [1]) was under 10 nM and the EC50 (hMPV-GFP virus; [2]) was over 100 nM.
Molecule `Cn1nc(-c2ncccn2)cc1C(=O)N1C[C@@H]2[C@H](C1)[C@H]2Oc1cc(C(C)(C)N)cc(-c2ccc(F)cc2Cl)n1` [Example 57, ((1R,5S,6s)-6-((4-(2-aminopropan-2-yl)-6-(2-chloro-4-fluorophenyl)pyridin-2-yl)oxy)-3-azabicyclo[3.1.0]hexan-3-yl)(1-methyl-3-(pyrimidin-2-yl)-1H-pyrazol-5-yl)methanone] has an EC50 (RSV-A2-GFP virus; [1]) of under 10 nM and an EC50 (hMPV-GFP virus; [2]) of over 100 nM.
Work on `Cn1nc(-c2ncccn2)cc1C(=O)N1C[C@@H]2[C@H](C1)[C@H]2Oc1cc(C(C)(C)N)cc(-c2ccc(Cl)cc2)n1` [Example 58, ((1R,5S,6s)-6-((4-(2-aminopropan-2-yl)-6-(4-chlorophenyl)pyridin-2-yl)oxy)-3-azabicyclo[3.1.0]hexan-3-yl)(1-methyl-3-(pyrimidin-2-yl)-1H-pyrazol-5-yl)methanone] yielded an EC50 (RSV-A2-GFP virus; [1]) of under 10 nM and an EC50 (hMPV-GFP virus; [2]) of 10 to 100 nM.
Molecule `Cn1nc(-c2ncccn2)cc1C(=O)N1C[C@@H]2[C@H](C1)[C@H]2Oc1cc(C(C)(C)N)cc(-c2ccc(C(F)(F)F)cc2)n1` [Example 59, ((1R,5S,6s)-6-((4-(2-aminopropan-2-yl)-6-(4-(trifluoromethyl)phenyl)pyridin-2-yl)oxy)-3-azabicyclo[3.1.0]hexan-3-yl)(1-methyl-3-(pyrimidin-2-yl)-1H-pyrazol-5-yl)methanone] has an EC50 (RSV-A2-GFP virus; [1]) of under 10 nM and an EC50 (hMPV-GFP virus; [2]) of 10 to 100 nM.

Reference: US12643882B2, “Inhibitors of human respiratory syncytial virus and metapneumovirus” (priority 2022, dated 2026)
